# Reference: patent publication US20230234943A1, “TREX1 INHIBITORS AND USES THEREOF” (Tempest Therapeutics, Inc., priority 2020, published 2023)
# Target: T1, Human TREX1 enzyme (amino acids 1-242) (Homo sapiens, UniProt Q9NSU2)
# T1 construct: Human TREX1 enzyme (amino acids 1-242)
# T1 sequence (Q9NSU2 1-242): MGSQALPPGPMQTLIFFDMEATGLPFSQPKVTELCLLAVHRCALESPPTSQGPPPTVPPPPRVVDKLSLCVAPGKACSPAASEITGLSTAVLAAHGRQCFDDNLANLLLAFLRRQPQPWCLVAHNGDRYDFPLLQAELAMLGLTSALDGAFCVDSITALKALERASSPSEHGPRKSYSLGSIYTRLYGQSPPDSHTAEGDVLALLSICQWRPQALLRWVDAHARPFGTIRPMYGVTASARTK
# Experiment: Human TREX1 enzymatic assay with dsDNA native oligonucleotide (Picogreen fluorescence)
# Assay type: biochemical
# Conditions: 2 mM dithiothreitol in assay buffer; 50 nM dsDNA oligonucleotide; 30 min preincubation at 25° C.; read-out: TREX1/Human + DTT IC50 AVG
# Outline: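 TREX1 (0.8–0.16 nM final) preincubated with compound (300 μM–13 nM or 30 μM–1.5 nM, 2% DMSO) 30 min at 25 °C in Tris pH 7.7, 5 mM MgCl2, 2 mM DTT. Annealed dsDNA (50 nM) added for 5–15 min at 25 °C; EDTA quench with Picogreen fluorescence readout.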
row,Structure (SMILES),IC50
1,"O=C(O)c1ccc(-c2nc3cc(N4CCN(C(=O)c5ccccc5)CC4)ccc3[nH]2)cc1O [Example 118, 4-(5-(4-benzoylpiperazin-1-yl)-1H-benzo[d]imidazol-2-yl)-2-hydroxybenzoic acid]",10 to 100 µM
2,"C#CCCC1(CCC(=O)N2CCN(c3ccc4[nH]c(-c5cc(O)c(O)c(OC)c5)nc4c3)CC2)N=N1 [Example 88, 3-(3-(but-3-yn-1-yl)-3H-diazirin-3-yl)-1-(4-(2-(3,4-dihydroxy-5-methoxyphenyl)-1H-benzo[d]imidazol-5-yl)piperazin-1-yl)propan-1-one]",> 100 µM
3,"Oc1cc(-c2nc3ccccc3n2C2COC2)c2c(c1O)OCC2 [Example 162, 4-(1-(oxetan-3-yl)-1H-benzo[d]imidazol-2-yl)-2,3-dihydrobenzofuran-6,7-diol]",> 100 µM
4,"COc1cc(-c2nc3ccc(C(=O)NC4CCNC4)cc3n2C2(C)COC2)c(F)c(O)c1O (stereo not drawn) [Example 261, 2-(2-fluoro-3,4-dihydroxy-5-methoxyphenyl)-1-(3-methyloxetan-3-yl)-N-(pyrrolidin-3-yl)-1H-benzo[d]imidazole-6-carboxamide]",0.1 to 1 µM
5,"COc1cc(-c2nc3cc(S(=O)(=O)Nc4ccccc4)ccc3[nH]2)cc(O)c1O [Example 19, 2-(3,4-dihydroxy-5-methoxyphenyl)-N-phenyl-1H-benzo[d]imidazole-5-sulfonamide]",> 100 µM
6,"Oc1cc(-c2nc3ccccc3n2C2CCC2)cc(OC(F)F)c1O [Example 333, 5-(1-cyclobutyl-1H-benzo[d]imidazol-2-yl)-3-(difluoromethoxy)benzene-1,2-diol]",> 100 µM
7,"COc1cc(-c2nc3cnccc3n2C2(C)COC2)c(F)c(O)c1O [Example 229, 3-fluoro-6-methoxy-4-(1-(3-methyloxetan-3-yl)-1H-imidazo[4,5-c]pyridin-2-yl)benzene-1,2-diol]",1 to 10 µM
8,"COc1cc(-c2nc3cc(N4CC(F)C4)ccc3[nH]2)cc(O)c1O [Example 145, 5-(5-(3-fluoroazetidin-1-yl)-1H-benzo[d]imidazol-2-yl)-3-methoxybenzene-1,2-diol]",> 100 µM
9,"COc1cc(-c2nc3cc(NC(C)=O)ccc3n2C2(C)COC2)c(F)c(O)c1O [Example 312, N-(2-(2-fluoro-3,4-dihydroxy-5-methoxyphenyl)-1-(3-methyloxetan-3-yl)-1H-benzo[d]imidazol-5-yl)acetamide]",≤ 0.1 µM
10,"COc1cc(-c2nc3cc(N4CC(OC)C4)ccc3[nH]2)cc(O)c1O [Example 144, 3-methoxy-5-(5-(3-methoxyazetidin-1-yl)-1H-benzo[d]imidazol-2-yl)benzene-1,2-diol]",10 to 100 µM
11,"COc1cc(-c2nc3cc(N4CCN(C(=O)c5cccnc5)CC4)ccc3[nH]2)cc(O)c1O [Example 32, (4-(2-(3,4-dihydroxy-5-methoxyphenyl)-1H-benzo[d]imidazol-5-yl)piperazin-1-yl)(pyridin-3-yl)methanone]",10 to 100 µM
12,"COc1cc(-c2nc3ccc(C(=O)N4CCC4)cc3n2C2(C)COC2)c(F)c(O)c1O [Example 177, 4-[6-(azetidine-1-carbonyl)-1-(3-methyloxetan-3-yl)-1H-1,3-benzodiazol-2-yl]-3-fluoro-6-methoxybenzene-1,2-diol]",0.1 to 1 µM
13,"COc1cc(-c2nc3ccc(C(=O)Nc4cccnc4)cc3n2C2(C)COC2)c(F)c(O)c1O [Example 250, 2-(2-fluoro-3,4-dihydroxy-5-methoxyphenyl)-1-(3-methyloxetan-3-yl)-N-(pyridin-3-yl)-1H-1,3-benzodiazole-6-carboxamide]",≤ 0.1 µM
14,"COc1cc(-c2nc3cc(Nc4ccccc4)ccc3n2C2(C)COC2)c(F)c(O)c1O [Example 192, 3-fluoro-6-methoxy-4-[1-(3-methyloxetan-3-yl)-5-(phenylamino)-1H-1,3-benzodiazol-2-yl]benzene-1,2-diol]",≤ 0.1 µM
15,"CCc1c(-c2nc3ccccc3n2C2(C)COC2)cc(OC)c(O)c1O [Example 173, 3-ethyl-6-methoxy-4-[1-(3-methyloxetan-3-yl)-1H-1,3-benzodiazol-2-yl]benzene-1,2-diol]",10 to 100 µM
16,"COc1cc(-c2nc3cc(N4CCC4)ccc3n2C2COC2)cc(O)c1O [Example 284, 5-(5-(azetidin-1-yl)-1-(oxetan-3-yl)-1H-benzo[d]imidazol-2-yl)-3-methoxybenzene-1,2-diol]",1 to 10 µM
17,"CNC(=O)c1cccc2c1nc(-c1cc(OC)c(O)c(O)c1F)n2C1(C)COC1 [Example 214, 2-(2-fluoro-3,4-dihydroxy-5-methoxyphenyl)-N-methyl-1-(3-methyloxetan-3-yl)-1H-1,3-benzodiazole-4-carboxamide]",0.1 to 1 µM
18,"COc1cc(-c2nc3cc(N4CCN(CCF)CC4)ccc3[nH]2)cc(O)c1O [Example 66, 5-(5-(4-(2-fluoroethyl)piperazin-1-yl)-1H-benzo[d]imidazol-2-yl)-3-methoxybenzene-1,2-diol]",10 to 100 µM
19,"CCCC(=O)Nc1ccc2c(c1)nc(-c1cc(OC)c(O)c(O)c1F)n2C1(C)COC1 [Example 215, N-(2-(2-fluoro-3,4-dihydroxy-5-methoxyphenyl)-1-(3-methyloxetan-3-yl)-1H-benzo[d]imidazol-5-yl)butyramide]",≤ 0.1 µM
20,"COc1cc(-c2nc3cc(NCc4ccccc4)ccc3n2C2(C)COC2)c(F)c(O)c1O [Example 222, 4-(5-(benzylamino)-1-(3-methyloxetan-3-yl)-1H-benzo[d]imidazol-2-yl)-3-fluoro-6-methoxybenzene-1,2-diol]",≤ 0.1 µM
21,"COc1cc(-c2nc3cc(N4CCN(C(=O)c5ccc(C)cc5)CC4)ccc3[nH]2)cc(O)c1O [Example 98, (4-(2-(3,4-dihydroxy-5-methoxyphenyl)-1H-benzo[d]imidazol-5-yl)piperazin-1-yl)(p-tolyl)methanone]",1 to 10 µM
22,"COc1cc(-c2nc3cc(N4CCOCC4)ncc3[nH]2)cc(O)c1O [Example 55, 3-methoxy-5-(6-morpholino-3H-imidazo[4,5-c]pyridin-2-yl)benzene-1,2-diol]",> 100 µM
23,"CNC(=O)c1ccc2nc(-c3cc(OC)c(O)c(O)c3C)n(C3(C)COC3)c2c1 [Example 213, 2-(3,4-dihydroxy-5-methoxy-2-methylphenyl)-N-methyl-1-(3-methyloxetan-3-yl)-1H-1,3-benzodiazole-6-carboxamide]",≤ 0.1 µM
24,"COc1cc(-c2nc3cc(N4CCN(C)C(=O)C4)ccc3[nH]2)cc(O)c1O [Example 108, 4-(2-(3,4-dihydroxy-5-methoxyphenyl)-1H-benzo[d]imidazol-5-yl)-1-methylpiperazin-2-one]",1 to 10 µM
25,"COc1cc(-c2nc3cc(NC(=O)C4CC4)ccc3n2C2(C)COC2)c(F)c(O)c1O [Example 204, N-[2-(2-fluoro-3,4-dihydroxy-5-methoxyphenyl)-1-(3-methyloxetan-3-yl)-1H-1,3-benzodiazol-5-yl]cyclopropanecarboxamide]",≤ 0.1 µM
26,"COc1cc(-c2nc3ccc(-c4ncno4)cc3n2C2(C)COC2)c(F)c(O)c1O [Example 181, 3-fluoro-6-methoxy-4-[1-(3-methyloxetan-3-yl)-6-(1,2,4-oxadiazol-5-yl)-1H-1,3-benzodiazol-2-yl] benzene-1,2-diol]",≤ 0.1 µM
27,"COc1cc(-c2nc3cc(N4CCN(S(C)(=O)=O)CC4)ccc3[nH]2)cc(O)c1O [Example 50, 3-methoxy-5-(5-(4-(methylsulfonyl)piperazin-1-yl)-1H-benzo[d]imidazol-2-yl)benzene-1,2-diol]",1 to 10 µM
